Experimental data reported in patent US20240390338A1, “METHODS FOR TREATING NEUROGENERATIVE DISEASES” (PTC THERAPEUTICS, INC., priority 2021, published 2024).

Each compound was assayed on MAPT 3R mRNA (assay: RT-qPCR Assay to Quantify MAPT 3R mRNA in Cells). Details: cells incubated with compound 24 h; 7-point concentration curve; MAPT minigene 3R RT-qPCR with GAPDH assay; EC2X interpolated from dose response curve.
Assay type: cell-based
Procedure: RT-qPCR Assay to Quantify MAPT 3R mRNA in Cells
Test compounds were serially diluted 3.16-fold in 100% DMSO to generate a 7-point concentration curve. Aliquots of 0.5 μL of diluted compounds were transferred to a 96-well flat bottom plate by a liquid handler. An aliquot of 0.5 μL DMSO was also transferred to separate wells and used as controls. Duplicate samples were set up for each compound concentration and for the DMSO control.
Cells were thawed and incubated in cell culture media (DMEM, 10% FBS, and 1% antibiotic cocktail) for 72 h. Cells were trypsinized, counted, and re-suspended to a concentration of 200,000 cells/mL in cell culture media. A 100 μL aliquot of the cell suspensions were plated at 20,000 cells per well in the compound containing 96 well microtiter plate and incubated for in a cell culture incubator (37° C., 5% CO2, 100% relative humidity).
After 24 h, media was aspirated from the cells and 20 μL of the RCL2 lysis buffer (10 mM Tris-HCL pH 7.4, 150 mM NaCl, 0.33% IGEPAL® CA-630) was added to each well and incubated at RT for 1 min. Chilled nuclease free water (140 μL per well) was added and the plates were immediately transferred on ice. After 1 min on ice, plates were frozen at −80° C. overnight.
Preparation of RT-qPCR Reaction Mixture:
An aliquot of 4 μL/well of the cell lysates was transferred using the liquid handler to the Armadillo 384-Well PCR plate containing 6 μL/well of the RT-qPCR reaction mixture that was prepared as detailed above. The plates were then sealed with MicroAmp™ Optical Adhesive Film followed by spinning down for 1 min and placed in the CFX384 thermocycler (BioRad).
The RT-qPCR was carried out at the following temperatures for the indicated time: • Step 1: 48° C. (30 min) • Step 2: 95° C. (10 min) • Step 3: 95° C. (15 sec) • Step 4: 60° C. (1 min); then, repeated Steps 3 and 4 for a total of 40 cycles.
The percent exon 4 skipping was calculated for each dose of compound treatment using Equations 1 and 2.
Data were fit to a dose response curve and the EC2X was interpolated using XLfit® statistical and curve fitting package.
An EC2X value between >1000 nM and ≤1500 nM is indicated by two stars (**). An EC2X value between >500 nM and ≤1000 nM is indicated by three stars (***). An EC2X value between >50 nM and ≤500 nM is indicated by four stars (****). An EC2X value ≤50 nM is indicated by five stars (*****).

Row | SMILES | EC (2-fold increase) [µM]
1 | COC[C@H](N)Cc1sc2c(NCc3ccco3)cc(Cl)nc2c1C [Cpd 45, 2-[(2R)-2-amino-3-methoxypropyl]-5-chloro-N-[(furan-2-yl)methyl]-3-methylthieno[3,2-b]pyridin-7-amine] | ≤ 0.05
2 | N[C@H](Cc1sc2c(NCc3ccco3)cc(Cl)nc2c1Cl)C(=O)Nc1ccccc1F [Cpd 120, 3-(3,5-dichloro-7-{[(furan-2-yl)methyl]amino}thieno[3,2-b]pyridin-2-yl)-N-(2-fluorophenyl)-D-alaninamide] | 0.05 to 0.5
3 | N#CC[C@H](N)Cc1sc2c(NCc3cccs3)cc(Cl)nc2c1Cl [Cpd 106, (3S)-3-amino-4-(3,5-dichloro-7-{[(thiophen-2-yl)methyl]amino}thieno[3,2-b]pyridin-2-yl)butanenitrile] | 0.05 to 0.5
4 | CS(=O)(=O)C[C@H](N)Cc1sc2c(NCc3ccco3)cc(Cl)nc2c1Cl [Cpd 113, 2-[(2R)-2-amino-3-(methanesulfonyl)propyl]-3,5-dichloro-N-[(furan-2-yl)methyl]thieno[3,2-b]pyridin-7-amine] | 0.05 to 0.5
5 | Cc1c(C[C@@H](N)C(=O)N(C)C)sc2c(NCc3ccco3)cc(Cl)nc12 [Cpd 116, 3-(5-chloro-7-{[(furan-2-yl)methyl]amino}-3-methylthieno[3,2-b]pyridin-2-yl)-N,N-dimethyl-D-alaninamide] | 0.05 to 0.5
6 | N[C@@H](CO)Cc1sc2c(NCc3ccco3)cc(Cl)nc2c1Br [Cpd 41, (2R)-2-amino-3-(3-bromo-5-chloro-7-{[(furan-2-yl)methyl]amino}thieno[3,2-b]pyridin-2-yl)propan-1-ol] | 0.5 to 1
7 | C[C@H](F)[C@H](N)Cc1sc2c(NCc3nccs3)cc(Cl)nc2c1Br [Cpd 125, 2-[(2R,3S)-2-amino-3-fluorobutyl]-3-bromo-5-chloro-N-[(1,3-thiazol-2-yl)methyl]thieno[3,2-b]pyridin-7-amine] | ≤ 0.05
8 | Cc1c(C[C@@H](N)C(=O)Nc2cnccn2)sc2c(NCc3ccco3)cc(Cl)nc12 [Cpd 135, 3-(5-chloro-7-{[(furan-2-yl)methyl]amino}-3-methylthieno[3,2-b]pyridin-2-yl)-N-pyrazin-2-yl-D-alaninamide] | 0.05 to 0.5
9 | N#CC[C@H](N)Cc1sc2c(NCc3ccco3)cc(Cl)nc2c1Br [Cpd 103, (3S)-3-amino-4-(3-bromo-5-chloro-7-{[(furan-2-yl)methyl]amino}thieno[3,2-b]pyridin-2-yl)butanenitrile] | 0.05 to 0.5
10 | C[C@H](N)C(F)c1sc2c(NCc3ccco3)cc(Cl)nc2c1Br (stereo partly drawn) [Cpd 154, 2-[(2S)-2-amino-1-fluoropropyl]-3-bromo-5-chloro-N-[(furan-2-yl)methyl]thieno[3,2-b]pyridin-7-amine] | ≤ 0.05
11 | N[C@@H](CO)Cc1cc2nc(Cl)cc(NCc3ccco3)c2s1 [Cpd 17, (2R)-2-amino-3-(5-chloro-7-{[(furan-2-yl)methyl]amino}thieno[3,2-b]pyridin-2-yl)propan-1-ol] | 1 to 1.5
12 | Cc1c(C[C@@H](N)CCF)sc2c(NCc3cccs3)cc(Cl)nc12 [Cpd 92, 2-[(2S)-2-amino-4-fluorobutyl]-5-chloro-3-methyl-N-[(thiophen-2-yl)methyl]thieno[3,2-b]pyridin-7-amine] | 0.05 to 0.5
13 | Cc1c(C[C@@H](N)C(=O)Nc2ccncc2)sc2c(NCc3ccco3)cc(Cl)nc12 [Cpd 140, 3-(5-chloro-7-{[(furan-2-yl)methyl]amino}-3-methylthieno[3,2-b]pyridin-2-yl)-N-pyridin-4-yl-D-alaninamide] | 0.05 to 0.5
14 | C[C@H](N)Cc1sc2c(NCc3ccco3)cc(Cl)nc2c1Cl [Cpd 36, 2-[(2S)-2-aminopropyl]-3,5-dichloro-N-[(furan-2-yl)methyl]thieno[3,2-b]pyridin-7-amine] | ≤ 0.05
15 | C[C@H](N)Cc1sc2c(NCc3cccs3)cc(Cl)nc2c1Cl [Cpd 52, 2-[(2S)-2-aminopropyl]-3,5-dichloro-N-[(thiophen-2-yl)methyl]thieno[3,2-b]pyridin-7-amine] | ≤ 0.05
16 | Cc1c(C[C@@H](N)CC(C)C)sc2c(NCc3cccs3)cc(Cl)nc12 [Cpd 61, 2-[(2S)-2-amino-4-methylpentyl]-5-chloro-3-methyl-N-[(thiophen-2-yl)methyl]thieno[3,2-b]pyridin-7-amine] | ≤ 0.05
17 | C[C@@H](O)[C@H](N)Cc1sc2c(NCc3ccco3)cc(Cl)nc2c1Br [Cpd 165, (2R,3R)-3-amino-4-(3-bromo-5-chloro-7-{[(furan-2-yl)methyl]amino}thieno[3,2-b]pyridin-2-yl)butan-2-ol] | ≤ 0.05
18 | Cc1c(C[C@@H](N)CF)sc2c(NCc3cccs3)cc(Cl)nc12 [Cpd 91, 2-[(2R)-2-amino-3-fluoropropyl]-5-chloro-3-methyl-N-[(thiophen-2-yl)methyl]thieno[3,2-b]pyridin-7-amine] | ≤ 0.05
19 | N[C@H](Cc1sc2c(NCc3cccs3)cc(Cl)nc2c1Br)CC(F)F [Cpd 107, 2-[(2S)-2-amino-4,4-difluorobutyl]-3-bromo-5-chloro-N-[(thiophen-2-yl)methyl]thieno[3,2-b]pyridin-7-amine] | 0.05 to 0.5
20 | C#C[C@H](N)Cc1sc2c(NCc3ccco3)cc(Cl)nc2c1Cl [Cpd 166, 2-[(2R)-2-aminobut-3-yn-1-yl]-3,5-dichloro-N-[(furan-2-yl)methyl]thieno[3,2-b]pyridin-7-amine] | 0.05 to 0.5
21 | CSC[C@H](N)Cc1sc2c(NCc3ccco3)cc(Cl)nc2c1C [Cpd 104, 2-[(2R)-2-amino-3-(methylsulfanyl)propyl]-5-chloro-N-[(furan-2-yl)methyl]-3-methylthieno[3,2-b]pyridin-7-amine] | ≤ 0.05
22 | N[C@@H](CCF)Cc1sc2c(NCc3cccs3)cc(Cl)nc2c1Br [Cpd 74, 2-[(2S)-2-amino-4-fluorobutyl]-3-bromo-5-chloro-N-[(thiophen-2-yl)methyl]thieno[3,2-b]pyridin-7-amine] | ≤ 0.05
23 | Cc1c(C[C@@H](N)[C@H](C)F)sc2c(NCc3cccs3)cc(Cl)nc12 [Cpd 126, 2-[(2R,3S)-2-amino-3-fluorobutyl]-5-chloro-3-methyl-N-[(thiophen-2-yl)methyl]thieno[3,2-b]pyridin-7-amine] | ≤ 0.05
24 | Cc1c(C[C@@H](N)CCF)sc2c(NCc3ccco3)cc(Cl)nc12 [Cpd 95, 2-[(2S)-2-amino-4-fluorobutyl]-5-chloro-N-[(furan-2-yl)methyl]-3-methylthieno[3,2-b]pyridin-7-amine] | ≤ 0.05
25 | Cc1c(C[C@@H](N)CO)sc2c(NCc3ccco3)cc(Cl)nc12 [Cpd 58, (2R)-2-amino-3-(5-chloro-7-{[(furan-2-yl)methyl]amino}-3-methylthieno[3,2-b]pyridin-2-yl)propan-1-ol] | ≤ 0.05
26 | N[C@@H](CF)Cc1sc2c(NCc3ccco3)cc(Cl)nc2c1Cl [Cpd 94, 2-[(2R)-2-amino-3-fluoropropyl]-3,5-dichloro-N-[(furan-2-yl)methyl]thieno[3,2-b]pyridin-7-amine] | ≤ 0.05
27 | C[C@H](N)C(F)(F)c1sc2c(NCc3cccs3)cc(Cl)nc2c1Cl [Cpd 132, 2-[(2S)-2-amino-1,1-difluoropropyl]-3,5-dichloro-N-[(thiophen-2-yl)methyl]thieno[3,2-b]pyridin-7-amine] | 0.05 to 0.5
28 | C[C@H](N)Cc1sc2c(NCc3ccco3)cc(Cl)nc2c1C1CC1 [Cpd 51, 2-[(2S)-2-aminopropyl]-5-chloro-3-cyclopropyl-N-[(furan-2-yl)methyl]thieno[3,2-b]pyridin-7-amine] | ≤ 0.05
29 | COC[C@H](N)Cc1sc2c(NCc3ccco3)cc(Cl)nc2c1Br [Cpd 44, 2-[(2R)-2-amino-3-methoxypropyl]-3-bromo-5-chloro-N-[(furan-2-yl)methyl]thieno[3,2-b]pyridin-7-amine] | ≤ 0.05
30 | N[C@@H](CCF)Cc1sc2c(NCc3ccco3)cc(Cl)nc2c1Cl [Cpd 93, 2-[(2S)-2-amino-4-fluorobutyl]-3,5-dichloro-N-[(furan-2-yl)methyl]thieno[3,2-b]pyridin-7-amine] | 0.05 to 0.5
